Measurements as given in ChEMBL document CHEMBL3044730, “Synthesis, antimycobacterial, antiviral, antimicrobial activities, and QSAR studies of nicotinic acid benzylidene hydrazide derivatives” (Med Chem Res, 2012).
In brackets after ≈: the same amount, converted by molar mass.

Columns and labels:
[1] = system: Mammalian orthoreovirus 1; assay: Antiviral activity against Mammalian orthoreovirus 1 infected Vero cells assessed as inhibition of virus-induced cytopathicity by microscopy; assay type: functional, organism-based; conditions: Mammalian orthoreovirus 1, Vero
Bacillus subtilis = assay: Antimicrobial activity against Bacillus subtilis after 24 hr by serial dilution method; assay type: functional; design: unit not given here
[2] = system: Mycobacterium tuberculosis; assay: Antimicrobial activity against Mycobacterium tuberculosis by agar dilution method; assay type: functional
[3] = system: Respiratory syncytial virus; assay: Antiviral activity against Respiratory syncytial virus infected human HeLa cells assessed as inhibition of virus-induced cytopathicity by microscopy; assay type: functional, organism-based
[4] = system: Human herpesvirus 3 strain Oka vaccine; assay: Antiviral activity against Human herpesvirus 3 strain Oka vaccine OKA 07-1 (Varicella zoster virus) infected in human HEL cells assessed as inhibition of virus-induced cytopathicity; assay type: functional, organism-based; conditions: Human alphaherpesvirus 3, OKA 07-1, HEL
Human alphaherpesvirus 2 = assay: Antiviral activity against Human herpesvirus 2 strain G infected human HEL cells assessed as inhibition of virus-induced cytopathicity by microscopy; assay type: functional, organism-based; conditions: Human alphaherpesvirus 2, strain G
Human alphaherpesvirus 1 [5] = assay: Antiviral activity against TK(-) aciclovir-resistant Human herpesvirus 1 strain KOS infected in human HEL cells assessed as inhibition of virus-induced cytopathicity; assay type: functional, organism-based; conditions: Human alphaherpesvirus 1, KOS
Human alphaherpesvirus 1 [6] = assay: Antiviral activity against Human herpesvirus 1 strain KOS infected in human HEL cells assessed as inhibition of virus-induced cytopathicity by microscopy by microscopy; assay type: functional, organism-based; conditions: Human alphaherpesvirus 1, KOS
[7] = Cytotoxicity against Homo sapiens (human) MT4 cells after 4 days by MTT assay; assay type: cell-based
Vaccinia virus = assay: Antiviral activity against Vaccinia virus infected human HEL cells assessed as inhibition of virus-induced cytopathicity by microscopy; assay type: functional, organism-based; conditions: Orthopoxvirus vaccinia
[8] = system: Human immunodeficiency virus 1; assay: Antiviral activity against Human immunodeficiency virus 1 IIIB infected MT4 cells assessed as inhibition of virus-induced cytopathic effect after 4 days by MTT assay; assay type: functional, organism-based; conditions: MT4, 96 h
Sindbis virus = assay: Antiviral activity against Sindbis virus infected Vero cells assessed as inhibition of virus-induced cytopathicity; assay type: functional, organism-based
Staphylococcus aureus = assay: Antimicrobial activity against Staphylococcus aureus after 24 hr by serial dilution method; assay type: functional; design: unit not given here
Coxsackievirus B4 [9] = assay: Antiviral activity against Human coxsackievirus B4 infected human HeLa cells assessed as inhibition of virus-induced cytopathicity by microscopy; assay type: functional, organism-based; conditions: Enterovirus B
Coxsackievirus B4 [10] = assay: Antiviral activity against Human coxsackievirus B4 infected Vero cells assessed as inhibition of virus-induced cytopathicity; assay type: functional, organism-based; conditions: Enterovirus B
[11] = Cytotoxicity against Chlorocebus aethiops (African green monkey) Vero cells assessed as alteration in cell morphology by microscopy; assay type: cell-based; conditions: chlorocebus sabaeus
Punta Toro virus = assay: Antiviral activity against Punta Toro virus infected Vero cells assessed as inhibition of virus-induced cytopathicity; assay type: functional, organism-based
Candida albicans [12] = assay: Antimicrobial activity against Candida albicans after 2 days by serial dilution method; assay type: functional; design: unit not given here
[13] = Cytotoxicity against Homo sapiens (human) HEL cells assessed as alteration in cell morphology by microscopy; assay type: cell-based
Escherichia coli = assay: Antimicrobial activity against Escherichia coli after 24 hr by serial dilution method; assay type: functional; design: unit not given here
[14] = system: Human immunodeficiency virus 2; assay: Antiviral activity against Human immunodeficiency virus type 2 (ISOLATE ROD) infected MT4 cells assessed as inhibition of virus-induced cytopathic effect after 4 days by MTT assay; assay type: functional, organism-based; conditions: Human immunodeficiency virus 2, ISOLATE ROD, MT4, 96 h
Candida albicans [15] = assay: Antimicrobial activity against Candida albicans after 7 days by serial dilution method; assay type: functional; design: unit not given here
[16] = Cytotoxicity against Homo sapiens (human) HeLa cells assessed as alteration in cell morphology by microscopy; assay type: cell-based
[17] = system: Human herpesvirus 5 strain AD169; assay: Antiviral activity against Human herpesvirus 5 strain AD169 Davis infected human HEL cells assessed as inhibition of virus-induced cytopathicity by microscopy; assay type: functional, organism-based; conditions: Human betaherpesvirus 5, Davis
[18] = system: Vesicular stomatitis virus; assay: Antiviral activity against Vesicular stomatitis virus infected human HeLa cells assessed as inhibition of virus-induced cytopathicity by microscopy; assay type: functional, organism-based
Human respirovirus 3 = assay: Antiviral activity against Human parainfluenza virus 3 infected Vero cells assessed as inhibition of virus-induced cytopathicity by microscopy; assay type: functional, organism-based; conditions: Human respirovirus 3, Vero

SMILES | EC50 [1] [µg/mL] | -logMIC (Bacillus subtilis) | MIC [2] [µg/mL] | EC50 [3] [µg/mL] | EC50 [4] [µg/mL] | EC50 (Human alphaherpesvirus 2) [µg/mL] | EC50 (Human alphaherpesvirus 1 [5]) [µg/mL] | EC50 (Human alphaherpesvirus 1 [6]) [µg/mL] | CC50 at 96 h [7] [µg/mL] | EC50 (Vaccinia virus) [µg/mL] | EC50 [8] [µg/mL] | EC50 (Sindbis virus) [µg/mL] | -logMIC (Staphylococcus aureus) | EC50 (Coxsackievirus B4 [9]) [µg/mL] | EC50 (Coxsackievirus B4 [10]) [µg/mL] | MCC [11] [µg/mL] | EC50 (Punta Toro virus) [µg/mL] | -logMIC (Candida albicans [12]) | CC50 [13] [µg/mL] | MCC [13] [µg/mL] | also measured
COc1ccc(OC)c(/C=N/NC(=O)c2cccnc2)c1 | > 100 | 1.36 | > 25 | > 100 | > 20 | > 20 | > 20 | > 20 | 13 (≈ 45.6 µM) | > 20 | > 13 | > 100 | 1.36 | > 100 | > 100 | > 100 | > 100 | 1.36 | 12 (≈ 42.1 µM) | 100 | -logMIC (Escherichia coli): 1.96; EC50 [14]: > 13 µg/mL; -logMIC (Candida albicans [15]): 1.96; MCC [16]: > 100 µg/mL; EC50 [17]: > 20 µg/mL; EC50 [18]: > 100 µg/mL; EC50 (Human respirovirus 3): > 100 µg/mL
O=C(N/N=C/c1cccc(O)c1)c1cccnc1 | > 100 | 1.29 | > 25 | > 100 | > 100 | > 100 | > 100 | > 100 | 98 (≈ 406 µM) | > 100 | > 98 | > 100 | 1.29 | > 100 | > 100 | > 100 | > 100 | 1.28 | > 100 | > 100 | -logMIC (Escherichia coli): 1.29; EC50 [14]: > 98 µg/mL; -logMIC (Candida albicans [15]): 1.29; MCC [16]: > 100 µg/mL; EC50 [17]: > 100 µg/mL; EC50 [18]: > 100 µg/mL; EC50 (Human respirovirus 3): > 100 µg/mL
O=C(N/N=C/c1ccccc1Cl)c1cccnc1 | > 100 | 1.02 | > 25 | > 20 | > 100 | > 100 | > 100 | > 100 | ≥ 0.57 | > 100 | > 0.57 | > 100 | 1.32 | > 20 | > 100 | > 100 | > 100 | 1.32 | 12 (≈ 46.2 µM) | > 100 | -logMIC (Escherichia coli): 1.02; EC50 [14]: > 0.57 µg/mL; -logMIC (Candida albicans [15]): 1.32; MCC [16]: 100 µg/mL; EC50 [17]: > 100 µg/mL; EC50 [18]: > 20 µg/mL; EC50 (Human respirovirus 3): > 100 µg/mL
O=C(N/N=C/c1ccc(Cl)cc1)c1cccnc1 | > 100 | 1.02 | 25 (≈ 96.3 µM) | > 100 | > 100 | > 100 | > 100 | > 100 | 76 (≈ 293 µM) | > 100 | > 76 | > 100 | 1.32 | > 100 | > 100 | > 100 | > 100 | 1.32 | 29 (≈ 112 µM) | > 100 | -logMIC (Escherichia coli): 1.32; EC50 [14]: > 76 µg/mL; -logMIC (Candida albicans [15]): 1.92; MCC [16]: > 100 µg/mL; EC50 [17]: > 100 µg/mL; EC50 [18]: > 100 µg/mL; EC50 (Human respirovirus 3): > 100 µg/mL
O=C(N/N=C/c1ccccc1)c1cccnc1 [NICOTINIC ACID BENZYLIDENE-HYDRAZIDE] | > 100 | 0.95 | > 25 | > 20 | > 100 | > 100 | > 100 | > 100 | > 125 | > 100 | > 125 | > 100 | 0.35 | > 20 | > 100 | > 100 | > 100 | 1.25 | > 100 | > 100 | -logMIC (Escherichia coli): 1.26; EC50 [14]: > 125 µg/mL; -logMIC (Candida albicans [15]): 1.86; MCC [16]: 100 µg/mL; EC50 [17]: > 100 µg/mL; EC50 [18]: > 20 µg/mL; EC50 (Human respirovirus 3): > 100 µg/mL
O=C(N/N=C/c1ccc(F)cc1)c1cccnc1 | > 100 | 1.29 | 25 (≈ 103 µM) | > 100 | > 100 | > 100 | > 100 | > 100 | > 125 | > 100 | > 125 | > 100 | 1.29 | > 100 | > 100 | > 100 | > 100 | 1.29 | > 100 | > 100 | -logMIC (Escherichia coli): 1.29; EC50 [14]: > 125 µg/mL; -logMIC (Candida albicans [15]): 1.59; MCC [16]: > 100 µg/mL; EC50 [17]: > 100 µg/mL; EC50 [18]: > 100 µg/mL; EC50 (Human respirovirus 3): > 100 µg/mL
O=C(N/N=C/c1cccc(Cl)c1)c1cccnc1 | 34 (≈ 131 µM) | 1.02 | > 25 | > 100 | > 100 | > 100 | > 100 | > 100 | 62 (≈ 239 µM) | > 100 | > 62 | > 100 | 1.32 | > 100 | > 100 | > 100 | > 100 | 1.32 | 53 (≈ 204 µM) | > 100 | -logMIC (Escherichia coli): 1.02; EC50 [14]: > 62 µg/mL; -logMIC (Candida albicans [15]): 1.92; MCC [16]: > 100 µg/mL; EC50 [17]: > 100 µg/mL; EC50 [18]: > 100 µg/mL; EC50 (Human respirovirus 3): > 100 µg/mL
COc1cc(/C=N/NC(=O)c2cccnc2)ccc1O | > 100 | 0.43 | > 25 | > 100 | > 100 | > 20 | > 20 | > 20 | ≥ 93 | > 20 | > 93 | > 100 | 0.43 | > 100 | > 100 | > 100 | > 100 | 1.34 | > 100 | 100 | -logMIC (Escherichia coli): 0.43; EC50 [14]: > 93 µg/mL; -logMIC (Candida albicans [15]): 1.64; MCC [16]: > 100 µg/mL; EC50 [17]: > 20 µg/mL; EC50 [18]: > 100 µg/mL; EC50 (Human respirovirus 3): > 100 µg/mL
COc1ccc(/C=N/NC(=O)c2cccnc2)cc1 | > 100 | 1.31 | > 25 | > 100 | > 100 | > 100 | > 100 | > 100 | 99 (≈ 388 µM) | > 100 | > 99 | > 100 | 1.31 | > 100 | > 100 | > 100 | > 100 | 1.31 | > 100 | > 100 | -logMIC (Escherichia coli): 1.31; EC50 [14]: > 99 µg/mL; -logMIC (Candida albicans [15]): 1.61; MCC [16]: > 100 µg/mL; EC50 [17]: > 100 µg/mL; EC50 [18]: > 100 µg/mL; EC50 (Human respirovirus 3): > 100 µg/mL
